Source: PubChem BioAssay (NCI)
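The concentration for 50% growth inhibition is given as GI50. TGI is the concentration that stops growth completely.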

Experiments:
Test in all cases: growth of human tumour cells (NCI), 384-well format
[1] = system: NCI-H23 lung
[2] = system: NCI-H322M lung
[3] = system: NCI-H460 NSCLC
[4] = system: NCI-H522 lung
[5] = system: NCI/ADR-RES ovarian
[6] = system: OVCAR-3 ovarian
[7] = system: OVCAR-4 ovarian
[8] = system: OVCAR-5 ovarian
[9] = system: OVCAR-8 ovarian
[10] = system: PC-3 prostate
[11] = system: RPMI-8226 leukemia
[12] = system: RXF 393 renal
[13] = system: SF-268 CNS
[14] = system: SF-295 CNS
[15] = system: SF-539 CNS
[16] = system: SK-MEL-28 melanoma
[17] = system: SK-MEL-5 melanoma
[18] = system: SK-OV-3 ovarian
[19] = system: SN12C renal
[20] = system: SNB-19 CNS
[21] = system: SNB-75 CNS
[22] = system: SW-620 colon
[23] = system: T-47D breast
[24] = system: TK-10 renal
[25] = system: U251 glioblastoma
[26] = system: UACC-257 melanoma
[27] = system: UO-31 renal

COc1cc(C(=O)NC2CCN(C)CC2)ccc1Nc1ncc2c(n1)N(C1CCCC1)CC(F)(F)C(=O)N2C
GI50 [1]: < 10 nM | TGI [1]: 20 nM | GI50 [2]: 842 nM | TGI [2]: 11800 nM | GI50 [3]: 11.5 nM | TGI [3]: 35.5 nM | GI50 [4]: < 10 nM | TGI [4]: < 10 nM | GI50 [5]: 1660 nM | TGI [5]: 3980 nM | GI50 [6]: < 10 nM | TGI [6]: < 10 nM | GI50 [7]: 1640 nM | TGI [7]: 7570 nM | GI50 [8]: 12.2 nM | TGI [8]: 1290 nM | GI50 [9]: 12.3 nM | TGI [9]: 29.3 nM | GI50 [10]: 33.8 nM | TGI [10]: 13200 nM | GI50 [11]: 18.8 nM | TGI [11]: 43.7 nM | GI50 [12]: < 10 nM | TGI [12]: 35 nM | GI50 [13]: < 10 nM | TGI [13]: < 10 nM | GI50 [14]: 29.9 nM | TGI [14]: 134 nM | GI50 [15]: 17.2 nM | TGI [15]: 263 nM | GI50 [16]: 46.4 nM | TGI [16]: 4740 nM | GI50 [17]: < 10 nM | TGI [17]: 180 nM | GI50 [18]: 11.4 nM | TGI [18]: 494 nM | GI50 [19]: 43.9 nM | TGI [19]: 1750 nM | GI50 [20]: < 10 nM | TGI [20]: 3080 nM | GI50 [21]: 57.4 nM | TGI [21]: 7490 nM | GI50 [22]: < 10 nM | TGI [22]: 97.4 nM | GI50 [23]: 28.2 nM | TGI [23]: 365 nM | GI50 [24]: 1090 nM | TGI [24]: 4950 nM | GI50 [25]: < 10 nM | TGI [25]: 1440 nM | GI50 [26]: 21.7 nM | TGI [26]: 2060 nM | GI50 [27]: 1310 nM | TGI [27]: 7870 nM
